Measured values reported in patent publication US20110009411A1, “THERAPEUTIC COMPOSITIONS AND THE USE THEREOF” (Gilead Sciences ,Inc., priority 2007, published 2011).

Test: Steady-state pharmacokinetic interaction study of the Compound and lopinavir/r (LPV/r)
Type: in vivo, human
Conditions: healthy volunteers
[1] = the Compound 125 mg QD + LPV/r 400/100 mg BID vs the Compound/r 125/100 mg QD (coadministration:alone), 14-day periods, n = 14

SMILES | LPV trough concentrations when coadministered with the Compound (steady state) | exposures when coadministered with the Compound (steady state) | Compound exposures upon coadministration with LPV/r (steady state) | AUCtau % GMR (90% CI) [1] | Cmax % GMR (90% CI) [1] | Ctau % GMR (90% CI) [1]
Cc1cccc(C)c1OCC(=O)N[C@@H](Cc1ccccc1)[C@@H](O)C[C@H](Cc1ccccc1)NC(=O)[C@H](C(C)C)N1CCCNC1=O [LPV, (2S)—N-[(2S,4S,5S)-5-{[2-(2,6-dimethyl-phenoxy)acetyl]amino}-4-hydroxy-1,6-diphenyl-hexan-2-yl]-3-methyl-2-(2-oxo-1,3-diazinan-1-yl)butanamide, reference compound] | maintained above recommended target troughs | unaltered | – | – | – | –
CC(C)c1nc(CN(C)C(=O)NC(C(=O)NC(Cc2ccccc2)CC(O)C(Cc2ccccc2)NC(=O)OCc2cncs2)C(C)C)cs1 (stereo not shown) [RTV, 1,3-thiazol-5-ylmethyl[3-hydroxy-5-[3-methyl-2-[methyl-[(2-propan-2-yl-1,3-thiazol-4-yl)methyl]carbamoyl]amino-butanoyl]amino-1,6-diphenyl-hexan-2-yl]aminoformate, reference compound] | – | unaltered | – | – | – | –
COc1cc2c(cc1Cc1cccc(Cl)c1F)c(=O)c(C(=O)O)cn2[C@H](CO)C(C)C [the Compound, 6-(3-chloro-2-fluorobenzyl)-1-[(2S)-1-hydroxy-3-methylbutan-2-yl]-7-methoxy-4-oxo-1,4-dihydroquinoline-3-carboxylic acid] | – | – | substantially elevated | 175% | 152% | 238%
